Test results: patent US9914736B2, “TrKA kinase inhibitors, compositions and methods thereof” (Merck Sharp & Dohme Corp., priority 2014, dated 2018)

The molecules below were run against human TrkA receptor (Homo sapiens (Human), UniProt P04629) (assay: DiscoverX PathHunter TrkA functional assay). Details: U2OS cells expressing human TrkA-ProLink, Shc1-EA and p75NTR; compound 1 h, then NGF at ~80% of maximal response for 3 h; luminescence.
Assay type: cell-based

human TrkA receptor, sequence (P04629 33-796): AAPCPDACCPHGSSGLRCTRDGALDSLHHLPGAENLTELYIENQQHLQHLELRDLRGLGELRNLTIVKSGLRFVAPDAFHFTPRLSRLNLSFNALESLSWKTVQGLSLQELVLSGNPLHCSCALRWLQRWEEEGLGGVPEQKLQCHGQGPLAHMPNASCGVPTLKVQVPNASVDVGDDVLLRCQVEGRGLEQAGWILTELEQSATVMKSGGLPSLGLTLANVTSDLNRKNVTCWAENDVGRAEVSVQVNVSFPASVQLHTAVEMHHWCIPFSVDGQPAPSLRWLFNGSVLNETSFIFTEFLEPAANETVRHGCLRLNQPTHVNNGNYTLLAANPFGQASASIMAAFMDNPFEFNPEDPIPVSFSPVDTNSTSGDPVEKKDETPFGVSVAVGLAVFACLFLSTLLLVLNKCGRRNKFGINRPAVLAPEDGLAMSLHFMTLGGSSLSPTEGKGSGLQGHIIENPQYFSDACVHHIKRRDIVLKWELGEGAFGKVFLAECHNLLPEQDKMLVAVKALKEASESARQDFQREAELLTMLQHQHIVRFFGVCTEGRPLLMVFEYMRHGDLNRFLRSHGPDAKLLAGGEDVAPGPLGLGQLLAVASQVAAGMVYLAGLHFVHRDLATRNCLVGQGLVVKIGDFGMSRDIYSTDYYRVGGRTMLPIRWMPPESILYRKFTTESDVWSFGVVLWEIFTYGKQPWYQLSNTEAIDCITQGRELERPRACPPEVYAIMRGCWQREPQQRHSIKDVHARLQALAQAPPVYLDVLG

Structure (SMILES)	IC50 [nM]
CNC(=O)Cc1cc(NC(=O)c2cc(-c3ccn(C)n3)c(C(F)(F)F)cc2F)n(-c2ccc(F)cc2)n1 [Compound 114, 2-fluoro-N-(1-(4-fluorophenyl)-3-(2-(methylamino)-2-oxoethyl)-1H-pyrazol-5-yl)-5-(1-methyl-1H-pyrazol-3-yl)-4-(trifluoromethyl)benzamide]	2.4
Cn1ccc(-c2cc(C(=O)Nc3cc(Cc4cc[nH]n4)nn3-c3ccc(F)cc3)ccc2C(F)(F)F)n1 [Compound 96, N-(3-((1H-pyrazol-3-yl)methyl)-1-(4-fluorophenyl)-1H-pyrazol-5-yl)-3-(1-methyl-1H-pyrazol-3-yl)-4-(trifluoromethyl)benzamide]	3.7
Cn1ccc(-c2cc(C(=O)Nc3cc(Cc4nnnn4C)nn3-c3ccccc3)c(Cl)cc2C(F)(F)F)n1 [Compound 80, 2-chloro-5-(1-methyl-1H-pyrazol-3-yl)-N-(3-((1-methyl-1H-tetrazol-5-yl)methyl)-1-phenyl-1H-pyrazol-5-yl)-4-(trifluoromethyl)benzamide]	0.78
Cc1cc(-n2nc(CC(=O)Nc3ccccn3)cc2NC(=O)c2ccc(C(F)(F)F)c(-c3ccn(C)n3)c2)[nH]n1 [Compound 22, N-{5′-methyl-3-[2-oxo-2-(pyridin-2-ylamino)ethyl]-2′H-1,3′-bipyrazol-5-yl}-3-(1-methyl-1H-pyrazol-3-yl)-4-(trifluoromethyl)benzamide]	5.6
O=C(Nc1cc(-c2ccncc2)nn1-c1cc(C(F)(F)F)n[nH]1)c1ccc(Cl)c(-c2cc[nH]n2)c1 [Compound 41, 4-chloro-3-(1H-pyrazol-3-yl)-N-[3-pyridin-4-yl-5′-(trifluoromethyl)-2′H-1,3′-bipyrazol-5-yl]benzamide]	240
O=C(Nc1cc(-c2ccc(=O)[nH]n2)nn1-c1ccccc1)c1ccc(C(F)(F)F)cc1Cl [Compound 10, 2-chloro-N-[3-(6-oxo-1,6-dihydropyridazin-3-yl)-1-phenyl-1H-pyrazol-5-yl]-4-(trifluoromethyl)benzamide]	290
Cn1ccc(-c2cc(C(=O)Nc3cc(Cc4cnc(N)nc4)nn3-c3ccc(F)cc3)ccc2C(F)(F)F)n1 [Compound 91, N-(3-((2-aminopyrimidin-5-yl)methyl)-1-(4-fluorophenyl)-1H-pyrazol-5-yl)-3-(1-methyl-1H-pyrazol-3-yl)-4-(trifluoromethyl)benzamide]	6.1
Cc1cc(NC(=O)c2ccc(OC(F)(F)F)c(-c3ccn(C)n3)c2)n(-c2ccc(F)cc2)n1 [Compound 73, N-[1-(4-fluorophenyl)-3-methyl-1H-pyrazol-5-yl]-3-(1-methyl-1H-pyrazol-3-yl)-4-(trifluoromethoxy)benzamide]	57
O=C(Nc1cc(-c2ccncc2)nn1-c1ccccc1)c1ccc(C(F)(F)F)c(-n2cccn2)c1 [Compound 24, N-(1-phenyl-3-pyridin-4-yl-1H-pyrazol-5-yl)-3-(1H-pyrazol-1-yl)-4-(trifluoromethyl)benzamide]	21
O=C(Nc1cc(-c2ccncc2)nn1-c1ccc(F)cc1)c1ccc(C(F)(F)F)c(-c2ncns2)c1 [Compound 26, N-[1-(4-fluorophenyl)-3-pyridin-4-yl-1H-pyrazol-5-yl]-3-(1,2,4-thiadiazol-5-yl)-4-(trifluoromethyl)benzamide]	350
O=C(Nc1cc(CO)nn1-c1ccc(F)cc1)c1cc(-c2ncccn2)c(C(F)(F)F)cc1F [Compound 97, 2-fluoro-N-(1-(4-fluorophenyl)-3-(hydroxymethyl)-1H-pyrazol-5-yl)-5-(pyrimidin-2-yl)-4-(trifluoromethyl)benzamide]	14
Cn1ccc(-c2cc(C(=O)Nc3cc(-c4ccncc4)nn3-c3cc(C(F)(F)F)n[nH]3)ccc2Cl)n1 [Compound 40, 4-chloro-3-(1-methyl-1H-pyrazol-3-yl)-N-[3-pyridin-4-yl-5′-(trifluoromethyl)-2′H-1,3′-bipyrazol-5-yl]benzamide]	3.2
Cn1ccc(-c2cc(C(=O)Nc3cc(Cc4nnn(C)n4)nn3-c3ccc(F)cc3)c(F)cc2C(F)(F)F)n1 [Compound 85, 2-fluoro-N-(1-(4-fluorophenyl)-3-((2-methyl-2H-tetrazol-5-yl)methyl)-1H-pyrazol-5-yl)-5-(1-methyl-1H-pyrazol-3-yl)-4-(trifluoromethyl)benzamide]	1.2
Cn1ccc(-c2cc(C(=O)Nc3cc(CC(N)=O)nn3-c3ccc(F)cc3)c(F)cc2C(F)(F)F)n1 [Compound 111, N-(3-(2-amino-2-oxoethyl)-1-(4-fluorophenyl)-1H-pyrazol-5-yl)-2-fluoro-5-(1-methyl-1H-pyrazol-3-yl)-4-(trifluoromethyl)benzamide]	2.4
Cc1csc(-c2cc(C(=O)Nc3cc(-c4cnn(C)c4)nn3-c3cc(C)[nH]n3)ccc2C(F)(F)F)n1 [Compound 5, N-(1″,5-dimethyl-1H,1″H-3,1′:3′,4″-terpyrazol-5′-yl)-3-(4-methyl-1,3-thiazol-2-yl)-4-(trifluoromethyl)benzamide]	0.85
Cn1ccc(-c2cc(C(=O)Nc3cc(-c4ncccn4)nn3-c3ccc(F)cc3)ccc2C(F)(F)F)n1 [Compound 60, N-[1-(4-fluorophenyl)-3-pyrimidin-2-yl-1H-pyrazol-5-yl]-3-(1-methyl-1H-pyrazol-3-yl)-4-(trifluoromethyl)benzamide]	3
O=C(NC1CC1)c1cc(NC(=O)c2ccc(C(F)(F)F)cc2Cl)n(-c2ccccc2)n1 [Compound 2, 5-({[2-chloro-4-(trifluoromethyl)phenyl]carbonyl}amino)-N-cyclopropyl-1-phenyl-1H-pyrazole-3-carboxamide]	60
Cn1ccc(-c2cc(C(=O)Nc3cc(Cc4nnn(CCO)n4)nn3-c3ccc(F)cc3)ccc2C(F)(F)F)n1 [Compound 77, N-[1-(4-fluorophenyl)-3-{[2-(2-hydroxyethyl)-2H-tetrazol-5-yl]methyl}-1H-pyrazol-5-yl]-3-(1-methyl-1H-pyrazol-3-yl)-4-(trifluoromethyl)benzamide]	14
Cc1c(Cl)cc(C(=O)Nc2cc(-c3ccncc3)nn2-c2ccccc2)cc1Cl [Compound 23, 3,5-dichloro-4-methyl-N-(1-phenyl-3-pyridin-4-yl-1H-pyrazol-5-yl)benzamide]	670
CCn1ccc(-c2cc(C(=O)Nc3cc(C)nn3-c3ccc(F)cc3)ccc2C(F)(F)F)n1 [Compound 75, 3-(1-ethyl-1H-pyrazol-3-yl)-N-[1-(4-fluorophenyl)-3-methyl-1H-pyrazol-5-yl]-4-(trifluoromethyl)benzamide]	89
O=C(Nc1cc(-c2ccncc2)nn1-c1ccccc1)c1cc(-c2cc[nH]n2)c(C(F)(F)F)cc1Cl [Compound 39, 2-chloro-N-(1-phenyl-3-pyridin-4-yl-1H-pyrazol-5-yl)-5-(1H-pyrazol-3-yl)-4-(trifluoromethyl)benzamide]	2.9

Further lines, results first:

IC50 [nM]	Structure (SMILES)
20	Cc1nc(-c2ccccc2)c(NC(=O)c2ccc(C(F)(F)F)c(-c3ccn(C)n3)c2)n1C [Compound 14, N-(1,2-dimethyl-4-phenyl-1H-imidazol-5-yl)-3-(1-methyl-1H-pyrazol-3-yl)-4-(trifluoromethyl)benzamide]
2800	Cn1ccc(-c2cc(C(=O)Nc3snnc3-c3ccccc3)ccc2C(F)(F)F)n1 [Compound 19, 3-(1-methyl-1H-pyrazol-3-yl)-N-(4-phenyl-1,2,3-thiadiazol-5-yl)-4-(trifluoromethyl)benzamide]
590	Cc1nc(-c2nc(C)n(C)c2NC(=O)c2ccc(C(F)(F)F)c(-c3ccn(C)n3)c2)cs1 [Compound 53, N-[1,2-dimethyl-4-(2-methyl-1,3-thiazol-4-yl)-1H-imidazol-5-yl]-3-(1-methyl-1H-pyrazol-3-yl)-4-(trifluoromethyl)benzamide]
62	Cc1nc(NC(=O)c2ccc(C(F)(F)F)c(-c3ccn(C)n3)c2)c(-c2ccccc2)s1 [Compound 72, N-(2-methyl-5-phenyl-1,3-thiazol-4-yl)-3-(1-methyl-1H-pyrazol-3-yl)-4-(trifluoromethyl)benzamide]
33	Cn1ccc(-c2cc(C(=O)Nc3c4c(nn3-c3ccc(F)cc3)CCC4)ccc2C(F)(F)F)n1 [Compound 82, N-[2-(4-fluorophenyl)-2,4,5,6-tetrahydrocyclopenta[c]pyrazol-3-yl]-3-(1-methyl-1H-pyrazol-3-yl)-4-(trifluoromethyl)benzamide]
5.5	Cn1ccc(-c2cc(C(=O)Nc3cc(-c4ccc(=O)[nH]n4)nn3-c3ccccc3)ccc2C(F)(F)F)n1 [Compound 11, 3-(1-methyl-1H-pyrazol-3-yl)-N-[3-(6-oxo-1,6-dihydropyridazin-3-yl)-1-phenyl-1H-pyrazol-5-yl]-4-(trifluoromethyl)benzamide]
5.7	Cn1ccc(-c2cc(C(=O)Nc3c(-c4ccccc4)nc(C(N)=O)n3C)ccc2C(F)(F)F)n1 [Compound 50, 1-methyl-5-({[3-(1-methyl-1H-pyrazol-3-yl)-4-(trifluoromethyl)phenyl]carbonyl}amino)-4-phenyl-1H-imidazole-2-carboxamide]
6	Cc1nc(-c2ccccc2)c(NC(=O)c2ccc(C(F)(F)F)c(-c3ccn(C)n3)c2)s1 [Compound 32, N-(2-methyl-4-phenyl-1,3-thiazol-5-yl)-3-(1-methyl-1H-pyrazol-3-yl)-4-(trifluoromethyl)benzamide]
2100	Cc1nc(-c2ccncc2)c(NC(=O)c2ccc(C(F)(F)F)c(-c3ccn(C)n3)c2)n1C [Compound 52, N-(1,2-dimethyl-4-pyridin-4-yl-1H-imidazol-5-yl)-3-(1-methyl-1H-pyrazol-3-yl)-4-(trifluoromethyl)benzamide]
13	Cc1cnn(-c2ccccc2)c1NC(=O)c1cc(-c2ccn(C)n2)c(C(F)(F)F)cc1Cl [Compound 46, 2-chloro-N-(4-methyl-1-phenyl-1H-pyrazol-5-yl)-5-(1-methyl-1H-pyrazol-3-yl)-4-(trifluoromethyl)benzamide]
170	Cn1ccc(-c2cc(C(=O)Nc3oncc3-c3ccccc3)ccc2C(F)(F)F)n1 [Compound 17, 3-(1-methyl-1H-pyrazol-3-yl)-N-(4-phenylisoxazol-5-yl)-4-(trifluoromethyl)benzamide]
